Active and inactive are the calls of the source. No cut-off for these calls is given here.
How the values were obtained:
[1] = Aqueous solubility of the compound at >100 uM; type: physicochemical; settings: buffer
[2] = target: T1, Heat shock protein HSP 90-alpha (Homo sapiens, UniProt P07900); test: Binding affinity to human HSP90alpha isoform 1 N-terminal ATP binding domain (9 to 236 residues) expressed in Escherichia coli BL21(DE3) assessed as melting temperature at 100 uM by SYPRO orange dye-based thermal shift assay
[3] = system: Saccharomyces cerevisiae; test: Binding affinity to yeast HSP90 N-terminal ATP binding domain by high-throughput virtual screening method
[4] = target: T1, Heat shock protein HSP 90-alpha; test: Binding affinity to 15N-labeled human HSP90alpha isoform 1 N-terminal ATP binding domain (9 to 236 residues) expressed in Escherichia coli BL21(DE3) by 1H-15N HSQC NMR spectroscopy
[5] = target: T1, Heat shock protein HSP 90-alpha; test: Binding affinity to 15N-labeled human HSP90alpha isoform 1 N-terminal ATP binding domain (9 to 236 residues) expressed in Escherichia coli BL21(DE3) assessed as reduction in protein signal intensity at 625 uM by 1H-15N HSQC NMR spectroscopy

| SMILES | solubility [1] | Tm [2] [°C] | Activity [3] | Kd [4] [µM] | Activity [5] |
| --- | --- | --- | --- | --- | --- |
| CCOC(=O)c1cc2n(c1N)-c1ccccc1C2=O | Soluble | 32.4 | Active |  |  |
| O=C(O)C1Cc2c([nH]c3ccccc23)C(c2ccc(O)c(O)c2)N1 (configuration not stated) | Soluble | 31.3 | Active |  |  |
| CCOC(=O)c1ccc(-c2c(-c3cc(CC)c(O)cc3O)n[nH]c2C)o1 | Soluble | 49.8 | Active | 3 |  |
| O=c1c2[nH]c3ccccc3c2ncn1CCc1ccc(O)c(O)c1 | Soluble | 36.5 | Active |  |  |
| Nc1ncnc2c1ncn2[C@@H]1O[C@H](COP(=O)(O)OP(=O)(O)O)[C@@H](O)[C@H]1O |  | 36.7 |  |  |  |
| CCCc1cc(C(=O)Cc2ccc(C(=O)OCC)o2)c(O)cc1O | Soluble | 40.3 | Active | 2 |  |
| CCc1cc(C(=O)Cc2ccc(OC)cc2)c(O)cc1O | Soluble | 42.1 | Active | 20 |  |
| O=c1c2[nH]c3ccccc3c2ncn1CCc1c[nH]cn1 | Soluble | 32.3 | Active |  |  |
| CC(=O)Nc1ccc(N[C@@H]2O[C@H](CO)[C@@H](O)[C@H]2O)cc1 | Soluble | 31.8 | Active |  |  |
| O=c1c2[nH]c3ccccc3c2ncn1CCc1ccc(O)cc1 | Insoluble | 30.8 | Active |  |  |
| N=c1oc2cc(O)ccc2cc1C(=O)NCc1ccccc1 | Soluble | 35.5 | Active |  |  |
| COc1ccc2[nH]cc(C(=O)CN3C[C@@H]4C[C@@H](C3)c3cccc(=O)n3C4)c2c1 | Soluble | 33.1 | Active |  |  |
| O=C(Cc1c(O)c2ccccc2[nH]c1=O)NCCO | Soluble | 32.8 | Active |  |  |

More lines, now with the values ahead:

| solubility [1] | Tm [2] [°C] | Activity [3] | Kd [4] [µM] | Activity [5] | SMILES |
| --- | --- | --- | --- | --- | --- |
| Soluble | 37.5 | Active | 370 |  | O=C(Cc1ccc2c(c1)OCCCO2)c1ccc(O)c(O)c1O |
| Soluble | 32.5 | Active |  |  | CC(NCc1c(O)ccc2c(-c3ccccc3)cc(=O)oc12)C(=O)O (configuration not stated) |
| Soluble | 32.4 | Active |  |  | Cc1oc2cc(OCC(=O)NCO)ccc2c(=O)c1-c1ccc2c(c1)OCCCO2 |
| Soluble | 32.4 | Active |  |  | Cc1cc(=O)oc2cc(OCc3ccc(C(=O)O)o3)ccc12 |
| Soluble | 32.4 | Active |  |  | O=C(O)COc1cc(OCC(=O)O)c2c(-c3ccccc3)cc(=O)oc2c1 |
| Soluble | 32.7 | Active |  | Active | Cc1c(OCc2ccc(C(=O)O)o2)ccc2c3c(c(=O)oc12)CCC3 |
| Soluble | 32.2 | Active |  |  | CCc1cc(-c2n[nH]c(C)c2-c2ccc3c(c2)OCCCO3)c(O)cc1OCC(=O)O |
| Soluble | 41.7 | Active | > 500 |  | CCCc1cc(C(=O)Cc2ccc3c(c2)OCO3)c(O)cc1O |
